≈ marks a conversion by molar mass, not a printed value.
Tests used:
[1] = tested on: Folsomia candida; details: chronic/long-term; duration: 28 days; reproduction
[2] = tested on: Oncorhynchus mykiss; details: acute; duration: 96 hours; mortality
[3] = tested on: Anas platyrhynchos; details: reproductive
[4] = tested on: Apis mellifera; details: acute, mortality
[5] = tested on: Argyrosomus sp.; details: acute; duration: 96 hours; mortality
[6] = tested on: Bibionidae; details: chronic/long-term; duration: 28 days; other
[7] = tested on: Colinus virginianus; details: acute; oral; mortality
[8] = tested on: Cyprinodon variegatus; details: chronic/long-term; duration: 100 days; reproduction
[9] = tested on: Hypoaspis aculeifer; details: chronic/long-term; reproduction
[10] = tested on: Neomysis kadiakensis
[11] = tested on: Rattus norvegicus
[12] = tested on: Aphidius rhopalosiphi; test: LR50; higher = less toxic; details: not reported; mortality
[13] = tested on: Pleurozium sp.; details: acute; duration: 72 hours; growth

| SMILES | NOEC [1] [mg/kg] | LC50 [2] [µg/mL] | NOAEL [3] [mg/kg-day] | LD50 ([4]; dermal) [µg/piece] | LD50 ([4]; oral, unspecified) [µg/piece] | LC50 [5] [µg/mL] | NOEC [6] [mg/L] | LD50 [7] [mg/kg-day] | NOEC [8] [mg/L] | NOEC [9] [mg/kg] | LC50 ([10]; acute, duration: 96 hours, mortality) [µg/mL] | NOEC ([10]; chronic/long-term, duration: 28 days, reproduction) [mg/L] | LD50 ([11]; acute, oral, mortality) [mg/kg-day] | NOAEL ([11]; chronic, duration: 2 years, organ weight) [mg/kg-day] | NOAEL ([11]; developmental, development) [mg/kg-day] | NOAEL ([11]; reproduction developmental, histopathology: nonneoplastic) [mg/kg-day] | LR50 [12] [g/ha] | NOEC [13] [mg/L] |
| --- | --- | --- | --- | --- | --- | --- | --- | --- | --- | --- | --- | --- | --- | --- | --- | --- | --- | --- |
| O=C(O)[C@@H]1CO[C@@](Cn2cncn2)(c2ccc(Cl)cc2Cl)O1 (racemic) | 1000 | > 100 | – | – | – | – | – | – | – | – | – | – | – | – | – | – | – | – |
| CCCC1COC(Cn2cncn2)(c2ccc(Cl)cc2Cl)O1 (centres undefined) [Propiconazole] | – | – | 25.5 | 46.3 | 203 | 2.6 (≈ 7.6 µM) | 4 | ≥ 2510 | 0.068 | 22.4 | 0.51 (≈ 1.49 µM) | 0.114 | 550 | 3.6 | 30 | 8.4 | > 250 | – |
| O=C(O)[C@H]1CO[C@@](Cn2cncn2)(c2ccc(Cl)cc2Cl)O1 (racemic) | 1000 | – | – | – | – | – | – | – | – | – | – | – | – | – | – | – | – | 112 |
